# Experimental data reported in PubChem BioAssay AID1996.
# Details: buffer; pH 7.4; 200.0 µM
row,SMILES,solubility kinetic [µg/mL]
1,COc1cc(NC(=O)c2ccc(S(=O)(=O)N(C)c3ccccc3OC)cc2)cc(OC)c1,4.5
2,CCCC/C(=N/O)c1c(C)[nH]c2ccccc12,30.7
3,O=C(CCc1ccccc1)Nc1cc2c3c(c1)CCC(=O)N3CCC2,40.3
4,O=C(NC1CCCCCCC1)c1cc(-c2ccccn2)nc2ccccc12,< 0.3
5,CCCNC(=S)Nc1ccc(F)cc1F,> 34.5
6,Cc1c(C(=O)Nc2cccc(S(=O)(=O)N3CCOCC3)c2)oc2ccccc12,2.3
7,O=C(COC(=O)c1cnccn1)Nc1ncc(C(F)(F)F)cc1Cl,53.4
8,CCN1C(=O)c2cccc3c(N)ccc1c23,> 31.8
9,COc1ccc(OC)c2nc(-c3ccncc3)ccc12,> 39.9
10,Cc1ccc(S(=O)(=O)NC(C)C(=O)NCc2ccc(Cl)cc2)cc1 (stereo not given),6.9
11,Cc1cnc(C(=O)OCC(=O)N2C(C)CCCC2C)cn1 (stereo not given),> 43.7
12,Cn1cccc1C(=O)OCC(=O)c1c[nH]c2ccccc12,9.9
13,CC(=O)c1c(C)[nH]c(C(=O)COC(=O)CCNS(=O)(=O)c2ccc(C)c(C)c2)c1C,11
14,Cc1ccccc1-n1ccnc1SCC(=O)NCc1ccco1,> 49.1
15,CC(=O)c1ccc(O)c(CSC2=NCCS2)c1,35.2
16,Cc1ccccc1NC(=O)Nc1ccc2c(c1)OCO2,0.5
17,COc1ccc(CCNC(=O)C2CC(O)CN2S(=O)(=O)c2ccc(Cl)cc2)cc1OC (stereo not given),> 70.3
18,Oc1ccc(Cl)cc1CNc1cccc2cccnc12,0.5
19,Cc1cccc(OCC(=O)OC(C)CN2CCCCC2)c1.Cl (stereo not given),> 49.2
20,COc1ccccc1NC(=O)N1CCN(c2ccnc3cc(Cl)ccc23)CC1,18.5
21,CCn1c(SCc2ccc(OC)c(F)c2)nc2ccccc2c1=O,< 0.4
22,COc1ccc(S(=O)(=O)N2CCc3ccccc32)cc1C(=O)Nc1ccc(NC(C)=O)cc1,7.2
23,C=C(C)CNC(=S)Nc1cccc(N)n1,> 33.3
24,O=c1cc(O)nc[nH]1,> 16.8

row,SMILES,solubility kinetic [µg/mL]
1,O=C(NC1CCCC1)c1cc(-c2ccccc2O)on1,2.2
2,CCN(CCO)c1ncnc2onc(-c3ccc(F)cc3)c12,> 45.3
3,CCOC(=O)C1=C(CC)Nc2ccccc2N=C1N,14.3
4,Cc1cccnc1NC(=O)c1ccc(COc2ccccc2)o1,> 46.3
5,CS(=O)(=O)Nc1ccc(S(=O)(=O)N2CCCC2)cc1,> 45.7
6,O=C(O)C1C2C=CC(C2)C1C(=O)Nc1ccc(Cl)c(Cl)c1 (stereo not given),13.4
7,COc1ccc2[nH]c(C(=O)Nc3ccc(C)c(F)c3)cc2c1,0.7
8,COc1ccc(OC)c(NC(=O)CCOc2cccc(C)c2)c1,23
9,COc1cc(SC)ccc1C(=O)OCC(=O)NC(=O)NC(C)C,10.9
10,Cc1cccc2nc(-c3ccco3)c(Nc3ccccc3)n12,2.9
11,CCCc1cc(=O)[nH]c(SCC(=O)Nc2ccc(N3CCCCC3)cc2)n1,16.6
12,O=C(CN1CCOCC1)Nc1ccc2c(c1)CCC2,> 39.1
13,COCCN1C(=O)NC(=O)/C(=C\c2ccc(F)cc2)C1=O,33.5
14,N#CCc1c(C#N)c(N)nc(N2CCN(C=O)CC2)c1C#N,> 44.3
15,CC1=C(C(=O)NC(C)c2ccccc2)C2(CCC(C)CC2)OC1=O (stereo not given),8.4
16,COC(=O)c1sccc1NC(=O)Nc1ccccc1OC,40
17,COc1ccc(NC(=O)Nc2ccc3c(c2)CCC3)c(OC)c1,< 0.3
18,Cc1ccnc(NC(=O)CCNS(=O)(=O)c2ccc(C)c(C)c2)c1,45.8
19,COC(=O)c1csc(S(=O)(=O)N2CCCCC2)c1OC,> 47.9
20,CC(O)CNCCOc1ccccc1-c1ccccc1.O=C(O)C(=O)O (stereo not given),> 54.2
21,CCc1ccc(OS(=O)(=O)c2cn(C)c(=O)n(C)c2=O)cc1,> 48.7
22,Cc1cc(OC(=O)c2ccccc2F)c([N+](=O)[O-])c(=O)[nH]1,> 43.8
23,CCCC(=O)Nc1nc(C)c(C(C)=O)s1,> 33.9
24,COc1ccccc1CNC(=O)c1cc2ccccc2oc1=O,< 0.7

row,SMILES,solubility kinetic [µg/mL]
1,Cc1cc(C)n2nc(SCC(=O)N3CCCCC3C)nc2n1 (stereo not given),> 47.9
2,CN(C)c1ccc(C(=O)NCC(c2cccs2)N2CCOCC2)cc1 (stereo not given),49.3
3,O=C(COC(=O)C12CC3CC(CC(Cl)(C3)C1)C2)N1CCCCC1,27.5
4,Cc1nc2ccccn2c1C(=O)NN=C1CCCC1,> 38.4
5,Cc1cccc(C(=O)OC(C)CN2CCCC2)c1.Cl (stereo not given),> 42.6
6,O=C(O)c1ccccc1SCc1csc(-c2ccccc2)n1,> 49.1
7,O=C1C(=O)c2ccccc2C(O)=C1c1cccc([N+](=O)[O-])c1,> 44.3
8,COc1ccc(/C=C/C(=O)O)cc1S(=O)(=O)N1CCC(Cc2ccccc2)CC1,61.6
9,Cc1noc(C)c1C(=O)NCc1ccccc1Br,44.6
10,Fc1ccccc1CNC(=S)NCc1ccc(Cl)cc1,3.3
11,O=c1c2c3c(sc2nc2n1CCC2)CCCC3,33.8
12,Cc1ccc(NS(=O)(=O)N2CCOCC2)cc1Cl,> 43.6
13,COc1ccc(/C=N/NC(=O)c2cccnc2)c(C(=O)O)c1OC,> 49.4
14,CCCCN(C1CCS(=O)(=O)C1)S(=O)(=O)c1ccc(C(C)C)cc1 (stereo not given),1.9
15,CS(=O)(=O)N1CCCC(C(=O)Nc2ccc(F)cc2)C1 (stereo not given),> 45.1
16,CCOc1ccc(/C=C/c2nc(C#N)c(NCCCOC)o2)cc1,3.4
17,O=[N+]([O-])c1ccc(Nc2nc(Cl)nc(NCCO)n2)cc1,2.6
18,CCc1ccccc1NC(=O)NC1CCCCCCC1,0.5
19,CCN1CCN(C(=O)c2cc(-c3ccc(Cl)s3)nc3ccccc23)CC1,53.5
20,Cl.O=c1cc(CN2CCNCC2)nc2sccn12,44
21,CN(CCOc1ccc(Cl)cc1)C(=O)C1=CC=CN2CCS(=O)(=O)N=C12,> 59.4
22,Cc1cccc(/C(N)=N/OC(=O)CCCc2ccccc2)c1,1.8
23,Cc1ccc(NC(=O)CN2CCCC2)cc1.Cl,> 38.2
24,CCn1cc(CN(C)S(=O)(=O)c2cccc([N+](=O)[O-])c2)cn1,> 48.7

row,SMILES,solubility kinetic [µg/mL]
1,Oc1ccc(Nc2nc(-c3ccccc3F)nc3ccccc23)cc1,1.4
2,O=C(C[n+]1ccc(/C=N/O)cc1)NCc1ccccc1.[Cl-],41.3
3,Cn1ccnc1Sc1ccccc1[N+](=O)[O-],24.1
4,COc1ccc(C(=O)Nc2ccc(C3(C#N)CCCC3)cc2)cc1OC,< 0.4
5,Cc1ccc(C(=O)OCC(=O)NCCc2ccc(F)cc2)cc1S(=O)(=O)N1CCOCC1,57.2
6,O=C(NC1=NCCS1)c1cccc(OC(F)F)c1,23.9
7,Cc1cccc(C(CC(=O)N2CCCCC2)c2ccccc2)c1O (stereo not given),0.8
8,Cc1ccc2[nH]cc(S(=O)(=O)c3ccc(F)cc3)c(=O)c2c1,5.5
9,CC(=O)Nc1ccc(-c2nc3cc(Cl)ccc3o2)cc1,< 0.3
10,COc1ccc(N2CC(C(=O)NC3=NCCS3)CC2=O)cc1 (stereo not given),> 47.9
11,Cc1cc(NC(=O)COC(=O)c2ccccc2Cl)no1,16.3
12,COc1ccc(C(=O)N/N=C\c2ccoc2)cc1,> 36.6
13,Cn1cnnc1SCC(=O)Nc1ccc(OC(F)F)cc1,> 47.1
14,COc1cccc(/C=N/c2nc3ccccc3[nH]2)c1O,33.2
15,Cc1c(C(=O)Nc2ccc3c(c2)OCCO3)cnn1C,> 41
16,Cc1ccc(S(=O)(=O)Nc2ccc3[nH]ccc3c2)cc1,> 43
17,CN(Cc1nc2ccccc2n1C)c1ccccc1,> 37.7
18,O=C(c1cccc([N+](=O)[O-])c1)N1CCN(c2ncccn2)CC1,> 47
19,O=C(NCCCn1ccnc1)c1cccc(Br)c1,46.2
20,CCN1CCN(C(=O)CSc2nc(N)cc(N)n2)CC1,> 44.5
21,COc1ccc(/C=C2\N=C(C)OC2=O)cc1OC(C)=O,> 41.3
22,CCc1ccc(CNCc2cccs2)cc1.Cl,23.9
23,Cc1ccc(NC(=O)C(=O)NCC2CCCO2)cc1C (stereo not given),> 41.5
24,Cc1ccc(S(=O)(=O)N2CC=C(C(=O)NC3CC3)CC2)cc1,40.5

row,SMILES,solubility kinetic [µg/mL]
1,CCCC1Cc2nc(Cl)c(C#N)cc2CO1 (stereo not given),> 35.5
2,Cn1cc([N+](=O)[O-])cc1-c1nc2ccccc2n1C,> 38.4
3,N#Cc1ccc(S(=O)(=O)Nc2ccc3ccccc3n2)cc1,27
4,CC1CCCCN1C(=O)c1cc(-c2ccc3c(c2)OCO3)on1 (stereo not given),39.9
5,Cc1ccc(NC(=O)c2ccc3nc[nH]c3c2)nc1,> 37.8
6,C=CCOc1ccc(/C=C2\SC(N3CCCCC3)=NC2=O)cc1,< 0.4
7,CC1(C)CC(NC(=S)Nc2ccc([N+](=O)[O-])cc2)CC(C)(C)N1,42.1
8,Cc1ccc(OCC(=O)NC(=S)Nc2ccc(Br)cn2)cc1,0.5
9,O=S1(=O)CC2NC(=S)N(c3cccc(Br)c3)C2C1 (stereo not given),> 52.1
10,CSc1nc(=S)n(-c2ccc([N+](=O)[O-])cc2)c(C)c1C(C)=O,48.2
11,Cc1ccc(C(=O)OCC(=O)NC2CCCC2)cc1C,15.8
12,COc1ccc(CCOC(=O)c2ccc(N)c([N+](=O)[O-])c2)cc1,1.1
13,O=C1NC(=O)N(Cc2ccc(F)cc2)C(=O)/C1=C\c1ccoc1,46.6
14,COc1ccc(CNc2ncnc3ccccc23)cc1,> 39.8
15,CCC(=O)Nc1ccc(NC(=O)c2ccc3ccccc3c2)cc1,< 0.3
16,O=C(Cc1ncon1)Nc1ccc(F)c(F)c1F,38.1
17,CCNCCC(CCC(C)C)c1ccc2c(c1)OCO2 (stereo not given),33.7
18,CC(C)CC(=O)Nc1ccc([N+](=O)[O-])cc1Cl,9.8
19,Cc1ccc(C)c(OC(=O)C2CSC3(C)CCC(=O)N23)c1C (stereo not given),44.2
20,Cc1ccc(NCc2ccc(O)c3ncccc23)cc1C,3.6
21,CCOC(=O)/C(=C/c1cn(C)c2ccccc12)NC(=O)c1ccccc1,3.2
22,COC(=O)c1ccccc1C(=O)N1CC(O)CO1 (stereo not given),> 37.7
23,COC(=O)c1ccc(C(=O)O)nc1,21.5
24,Cc1cccc(OCC(=O)Nc2ccc3oc(=O)ccc3c2)c1,3.3
